Test results as given in US12240857B2 (priority 2017, dated 2025).
Where “and” joins values, the source holds several entries; their conditions need not be identical. Equal values may be shown once. Read-outs that look alike come from different tables or passages of the source.

Key:
[1] = tested on: EBOV mucin-domain-deleted glycoprotein pseudotyped VSV; experiment: microbe, parasite or virus in culture; format: cell-based, Zaire ebolavirus; settings: Zaire ebolavirus, Vero
[2] = tested on: BDBV mucin-domain-deleted glycoprotein pseudotyped VSV; experiment: microbe, parasite or virus in culture; format: cell-based, Bundibugyo ebolavirus; settings: Vesicular stomatitis virus, Vero
[3] = tested on: parent VSV virus expressing the native VSV glycoprotein; experiment: microbe, parasite or virus in culture; format: cell-based; settings: Vesicular stomatitis virus, Vero, read-out: EC50 Pseudotype Assays VSV
[4] = tested on: full-length Ebola Zaire GP pseudotyped VSV (EBOV_FL); experiment: microbe, parasite or virus in culture; format: cell-based; settings: Zaire ebolavirus, read-out: EC50 Pseudotype Assays EBOV_FL
[5] = tested on: full-length SUDV GP pseudotyped VSV; experiment: microbe, parasite or virus in culture; format: cell-based, Sudan ebolavirus; settings: Vesicular stomatitis virus, read-out: EC50 Pseudotype Assays SUDV
[6] = tested on: full-length Marburgvirus (MARV) GP pseudotyped VSV; experiment: microbe, parasite or virus in culture; format: cell-based, Marburg marburgvirus; settings: Orthomarburgvirus, read-out: EC50 Pseudotype Assays MARV
[7] = tested on: full-length LASV glycoprotein pseudotyped VSV; experiment: microbe, parasite or virus in culture; format: cell-based, Lassa virus; settings: Vesicular stomatitis virus, read-out: EC50 Pseudotype Assays LASV
EBOV (Mayinga) [8] = experiment: microbe, parasite or virus in culture; format: cell-based, Zaire ebolavirus
EBOV (Mayinga) [9] = experiment: microbe, parasite or virus in culture; format: cell-based, Zaire ebolavirus; remark: listed apart in the source
wild-type Ebola Zaire [10] = tested on: wild-type Ebola Zaire
wild-type Sudan Gulu [11] = tested on: wild-type Sudan Gulu
P-gp = P-gp (Homo sapiens, UniProt P08183)
[12] = tested on: human Cyp-p450 enzymes 1A2, 2B6, 2C9, 2C19, 2D6
[13] = in vivo
in vivo = settings: male, CD-1, mouse
in vitro [14] = settings: African green monkey, Cytotox CC50
in vitro [15] = settings: human, microsomes
in vitro [16] = settings: mouse, microsomes
in vitro [17] = settings: monkey, microsomes
physchem = settings: pH 7, aqueous buffer, kinetic from dmso stock
in vitro [18] = settings: human, Caco-2
in vitro [19] = settings: human
in vitro [20] = settings: mouse
[21] = tested on: CYP1A2, CYP2B6, CYP2C9, CYP2C19, CYP2D6; experiment: in vitro; settings: human
human Cyp-p450 3A4 = human Cyp-p450 3A4 (Homo sapiens, UniProt P08684); experiment: biochemical
hERG ion channel = hERG ion channel (Homo sapiens, UniProt Q12809); experiment: biochemical
wild-type Ebola Zaire [22] = experiment: microbe, parasite or virus in culture; settings: Zaire ebolavirus, HeLa, read-out: Ebola Zaire EC50
wild-type Sudan Gulu [23] = experiment: microbe, parasite or virus in culture; settings: Sudan ebolavirus, HeLa, read-out: Sudan Gulu EC50

Chain of human Cyp-p450 3A4 (P08684 whole entry): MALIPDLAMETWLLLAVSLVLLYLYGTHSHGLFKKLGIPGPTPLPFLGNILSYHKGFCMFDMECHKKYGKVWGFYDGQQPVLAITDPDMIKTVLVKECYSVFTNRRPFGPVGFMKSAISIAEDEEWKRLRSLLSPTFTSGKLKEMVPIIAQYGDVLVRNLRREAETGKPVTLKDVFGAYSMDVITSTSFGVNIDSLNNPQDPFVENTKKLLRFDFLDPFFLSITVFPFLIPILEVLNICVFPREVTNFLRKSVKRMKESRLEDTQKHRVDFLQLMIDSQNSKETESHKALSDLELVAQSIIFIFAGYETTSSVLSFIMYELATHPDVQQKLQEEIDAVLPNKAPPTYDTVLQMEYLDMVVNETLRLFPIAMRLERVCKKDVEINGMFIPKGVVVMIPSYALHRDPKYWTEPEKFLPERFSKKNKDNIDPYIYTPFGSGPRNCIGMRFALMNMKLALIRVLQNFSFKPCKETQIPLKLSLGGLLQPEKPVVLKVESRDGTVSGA
Chain of P-gp (P08183 whole entry): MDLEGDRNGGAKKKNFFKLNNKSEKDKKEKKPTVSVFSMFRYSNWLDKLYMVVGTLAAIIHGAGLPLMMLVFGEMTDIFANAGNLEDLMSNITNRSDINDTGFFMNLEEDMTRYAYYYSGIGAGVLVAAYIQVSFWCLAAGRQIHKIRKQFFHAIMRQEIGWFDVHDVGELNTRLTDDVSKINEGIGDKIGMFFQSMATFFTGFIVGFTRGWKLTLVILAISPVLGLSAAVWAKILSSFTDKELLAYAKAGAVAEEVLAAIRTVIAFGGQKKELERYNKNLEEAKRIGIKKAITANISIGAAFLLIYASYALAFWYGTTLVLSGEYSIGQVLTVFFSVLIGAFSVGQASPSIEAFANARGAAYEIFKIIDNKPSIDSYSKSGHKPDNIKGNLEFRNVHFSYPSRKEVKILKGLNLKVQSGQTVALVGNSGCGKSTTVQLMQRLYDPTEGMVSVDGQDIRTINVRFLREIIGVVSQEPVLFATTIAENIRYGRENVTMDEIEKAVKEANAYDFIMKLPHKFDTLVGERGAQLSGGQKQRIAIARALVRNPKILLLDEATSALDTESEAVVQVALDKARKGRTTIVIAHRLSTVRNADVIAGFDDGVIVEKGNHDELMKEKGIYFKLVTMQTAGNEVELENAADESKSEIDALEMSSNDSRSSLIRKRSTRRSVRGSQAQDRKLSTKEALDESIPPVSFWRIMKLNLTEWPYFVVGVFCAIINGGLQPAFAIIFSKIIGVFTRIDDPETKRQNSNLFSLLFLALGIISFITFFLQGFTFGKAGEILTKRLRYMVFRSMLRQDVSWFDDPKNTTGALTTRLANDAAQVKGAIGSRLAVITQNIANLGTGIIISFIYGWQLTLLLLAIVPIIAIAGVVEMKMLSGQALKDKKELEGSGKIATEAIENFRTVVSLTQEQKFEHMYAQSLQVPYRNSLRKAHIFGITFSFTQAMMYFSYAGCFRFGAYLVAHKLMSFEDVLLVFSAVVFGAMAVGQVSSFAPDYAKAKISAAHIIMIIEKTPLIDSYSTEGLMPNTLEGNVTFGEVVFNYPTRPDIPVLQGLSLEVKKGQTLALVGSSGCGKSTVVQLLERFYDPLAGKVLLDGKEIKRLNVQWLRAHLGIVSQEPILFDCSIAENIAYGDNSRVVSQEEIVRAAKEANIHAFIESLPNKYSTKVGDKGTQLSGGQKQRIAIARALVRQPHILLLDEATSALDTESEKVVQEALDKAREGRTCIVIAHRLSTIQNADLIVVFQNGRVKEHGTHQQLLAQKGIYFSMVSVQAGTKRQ
Chain of hERG ion channel (Q12809 whole entry): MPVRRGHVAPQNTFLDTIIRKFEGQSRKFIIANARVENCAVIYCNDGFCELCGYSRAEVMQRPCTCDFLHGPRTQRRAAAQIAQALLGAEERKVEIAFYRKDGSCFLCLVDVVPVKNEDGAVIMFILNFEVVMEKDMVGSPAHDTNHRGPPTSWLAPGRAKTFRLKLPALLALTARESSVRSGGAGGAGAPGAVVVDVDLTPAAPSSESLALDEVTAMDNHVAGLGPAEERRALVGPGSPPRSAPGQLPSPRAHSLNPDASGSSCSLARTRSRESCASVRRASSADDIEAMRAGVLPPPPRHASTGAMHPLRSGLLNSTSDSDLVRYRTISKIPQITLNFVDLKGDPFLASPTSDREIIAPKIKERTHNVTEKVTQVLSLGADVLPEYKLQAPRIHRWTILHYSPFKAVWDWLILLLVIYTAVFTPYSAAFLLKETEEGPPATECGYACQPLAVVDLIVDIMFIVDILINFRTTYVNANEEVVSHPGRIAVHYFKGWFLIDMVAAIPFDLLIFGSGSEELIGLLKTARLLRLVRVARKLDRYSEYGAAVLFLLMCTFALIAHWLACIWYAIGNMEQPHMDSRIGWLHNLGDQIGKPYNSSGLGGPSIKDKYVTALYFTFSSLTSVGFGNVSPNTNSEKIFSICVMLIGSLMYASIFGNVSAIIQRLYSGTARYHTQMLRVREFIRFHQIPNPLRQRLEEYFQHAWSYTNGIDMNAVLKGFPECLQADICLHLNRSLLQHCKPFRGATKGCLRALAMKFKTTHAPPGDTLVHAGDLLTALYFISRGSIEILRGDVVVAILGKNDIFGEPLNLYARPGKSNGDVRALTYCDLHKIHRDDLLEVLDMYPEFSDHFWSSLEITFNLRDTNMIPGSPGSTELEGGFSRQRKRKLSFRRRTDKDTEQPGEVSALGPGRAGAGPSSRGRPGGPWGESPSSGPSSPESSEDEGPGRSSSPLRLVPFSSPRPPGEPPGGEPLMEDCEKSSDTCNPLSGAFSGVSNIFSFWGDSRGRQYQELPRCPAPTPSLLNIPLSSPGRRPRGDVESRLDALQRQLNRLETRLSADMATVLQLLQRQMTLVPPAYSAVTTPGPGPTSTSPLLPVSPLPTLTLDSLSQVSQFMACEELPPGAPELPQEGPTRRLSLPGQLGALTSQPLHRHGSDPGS

For `CC12CC3CC(C(=O)N[C@H]4CC[C@H](N)CC4)(C1)CC(c1ccccc1)(C3)C2.Cl` (stereo partly shown) [Example A78], the EC50 ([1]; read-out: EC50 EBOV) was 20 nM, the EC50 ([1]; read-out: EC50 Pseudotype Assays EBOV) was 20 nM and the EC50 ([2]; read-out: EC50 BDBV) was 90 nM. It also gave an EC50 ([2]; read-out: EC50 Pseudotype Assays BDBV) of 90 nM, an EC50 [3] greater than 10000 nM and an EC50 [4] of 50 nM. It also gave an EC50 [5] of 210 nM, an EC50 [6] of 3500 nM and an EC50 [7] greater than 10000 nM. The “SI50 (CC50/EC50)” value (EBOV (Mayinga) [8]) was 41.5, the EC50 (EBOV (Mayinga) [8]; Zaire ebolavirus, Vero) was 1100 nM and the “SI90 (CC50/EC90)” value (EBOV (Mayinga) [9]) was 8.2. For the same compound, the EC90 (EBOV (Mayinga) [9]; Zaire ebolavirus) was 5600 nM, the “Ebola Zaire SI (CC50/EC50)” value (wild-type Ebola Zaire [10]) was 268.2 and the “Sudan Gulu SI (CC50/EC50)” value (wild-type Sudan Gulu [11]) was 264.3. For the same compound, the “P-gp substrate ID Caco-2 Permeability (+Verapamil) Paap Mean A > B” value (P-gp) was 8.47 10^−6 cm s^−1, the “P-gp substrate ID Caco-2 Permeability (+Verapamil) Paap Mean B > A” value (P-gp) was 7.45 10^−6 cm s^−1 and the “Cyp-p450 inhibition IC50, 1A2, 2B6, 2C9, 2C19” value [12] was “not an inhibitor”. For the same compound, the F ([13]; male, CD-1, mouse) was 72%, the CI ([13]; male, CD-1, mouse, iv, 1 mg/kg) was 29.72 mL/min/kg and the clearance ([13]; mouse) was “less than hepatic blood flow”. For the same compound, the Vd (in vivo) was 14 L/kg, the half-life (in vivo) was 7.1 h and the half-life (in vivo; 10 mg/kg) was 7 h. The AUC(0-inf) (in vivo; iv, 1 mg/kg) was 561 ng·h/mL, the AUC(0-t) (in vivo; iv, 1 mg/kg) was 539 ± 23 ng·h/mL and the Cmax (in vivo; iv, 1 mg/kg) was 129 ± 40 ng/mL. For the same compound, the Tmax (in vivo; iv, 1 mg/kg) was 0.083 h, the Vd (in vivo; iv, 1 mg/kg) was 13.9 L/kg and the half-life (in vivo; iv, 1 mg/kg) was 5.4 h. The AUC(0-inf) (in vivo; po, 10 mg/kg) was 4040 ng·h/mL, the AUC(0-t) (in vivo; po, 10 mg/kg) was 3590 ± 576 ng·h/mL and the Cmax (in vivo; po, 10 mg/kg) was 239 ± 46 ng/mL. For the same compound, the Tmax (in vivo; po, 10 mg/kg) was 6 h, the bioavailability (in vivo; po, 10 mg/kg) was 72% and the half-life (in vivo; po, 10 mg/kg) was 7.1 h. It also gave a CC50 (in vitro [14]) greater than 10000 nM, a half-life (in vitro [15]) of 7.7 h and a half-life (in vitro [16]) of 4.45 h. The half-life (in vitro [17]) was greater than 2 h, the solubility (physchem) was greater than 500 µM and the Papp A→B (in vitro [18]) was 3.61 ×10⁻⁶ cm/s. The Papp B→A (in vitro [18]) was 15.6 ×10⁻⁶ cm/s, the efflux ratio (in vitro [18]) was 4.32 and the fraction unbound (in vitro [19]) was 0.025. The fraction unbound (in vitro [20]) was 0.014, the IC50 [21] was no less than 90000 nM and the IC50 (human Cyp-p450 3A4; Cyp-p450 inhibition IC50, 3A4 (Midazolam)) was greater than 100000 nM. For the same compound, the IC50 (human Cyp-p450 3A4; Cyp-p450 inhibition IC50, 3A4 (Testosterone)) was ~28000 nM and 28000 nM, the IC50 (hERG ion channel) was greater than 10000 nM and the EC50 (wild-type Ebola Zaire [22]) was 210 nM. The EC50 (wild-type Sudan Gulu [23]) was 210 nM.
